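A five-concentration, 48-hour dose response in 96-well plates underlies each endpoint, interpolated linearly between surrounding concentrations. Abbreviation: GI50, concentration required for 50% inhibition of growth.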 Activity calls are given as the source filed them. No stated cut-off is given here; in the data, active = GI50 up to about 1.1 µM and inactive = higher.
How the values were obtained:
Assay in all cases: inhibition of tumour cell growth, NCI panel, 48 h
[1] = tested on: SF-268
[2] = tested on: NCI-H226
[3] = tested on: NCI-H522
[4] = tested on: HCT-116
[5] = tested on: DLD-1
[6] = tested on: UACC-257
[7] = tested on: LOX IMVI
[8] = tested on: SK-MEL-2
[9] = tested on: M19-MEL
[10] = tested on: NCI-H460
[11] = tested on: LXFL 529
[12] = tested on: HCT-15
[13] = tested on: SNB-78
[14] = tested on: HCC 2998
[15] = tested on: OVCAR-5
[16] = tested on: RXF 631
[17] = tested on: TK-10
[18] = tested on: HOP-62
[19] = tested on: HOP-18
[20] = tested on: IGROV-1
[21] = tested on: SK-MEL-28
[22] = tested on: COLO 205
[23] = tested on: U-251
[24] = tested on: M14
[25] = tested on: HL-60
[26] = tested on: A549
[27] = tested on: DMS-114
[28] = tested on: EKVX
[29] = tested on: UO-31
[30] = tested on: KM12
[31] = tested on: MOLT-4
[32] = tested on: SK-OV-3
[33] = tested on: SF-539
[34] = tested on: HT-29
[35] = tested on: UACC-62
[36] = tested on: ACHN
[37] = tested on: CAKI-1
[38] = tested on: OVCAR-3
[39] = tested on: DMS-273
[40] = tested on: OVCAR-4
[41] = tested on: SW-620
[42] = tested on: SF-295
[43] = tested on: CCRF-CEM
[44] = tested on: SN12C
[45] = tested on: SK-MEL-5
[46] = tested on: SR
[47] = tested on: 786-0
[48] = tested on: XF498
[49] = tested on: HOP-92
[50] = tested on: NCI-H23
[51] = tested on: RPMI-8226
[52] = tested on: SNB-75
[53] = tested on: KM-20L2
[54] = tested on: OVCAR-8
[55] = tested on: K562
[56] = tested on: RXF 393
[57] = tested on: Malme-3M
[58] = tested on: SNB-19

Measured: GI50

O=C(CCCCCCCCCCc1ccccc1)c1c(O)cccc1O
inactive: [1] 23.8 µM | [2] 21.2 µM | [3] 21.4 µM | [4] 22.7 µM | [5] 21.3 µM | [6] 20.2 µM | [7] 27.2 µM | [8] 15.8 µM | [9] 20.7 µM | [10] 20.8 µM | [11] 18.6 µM | [13] 45.7 µM | [14] 19.4 µM | [15] 21.2 µM | [16] 30.8 µM | [17] 39 µM | [18] 20.8 µM | [19] 29.1 µM | [20] 26.5 µM | [21] 20 µM | [22] 23.8 µM | [23] 21.2 µM | [24] 20 µM | [25] 25.1 µM | [26] 27.7 µM | [27] 20.7 µM | [28] 21.3 µM | [29] 21.1 µM | [30] 18.4 µM | [31] 23.7 µM | [32] 44.8 µM | [33] 18.1 µM | [34] 33 µM | [35] 20.7 µM | [36] 28.1 µM | [37] 29.5 µM | [38] 27 µM | [39] 18.2 µM | [40] 25.3 µM | [41] 19.5 µM | [42] 21.3 µM | [43] 31.6 µM | [44] 18.7 µM | [45] 16.1 µM | [46] 25.2 µM | [47] 17.7 µM | [48] 20.2 µM | [49] 23.5 µM | [50] 18.9 µM | [51] 34.7 µM | [52] 29 µM | [53] 61.7 µM | [54] 20.7 µM | [55] 21.4 µM | [56] 19.4 µM | [57] 17.9 µM | [58] 20.2 µM
20 µM: [12]

CC(C)(C)c1cc(C(OCCl)(C(F)(F)F)C(F)(F)F)c2c(c1)C(C(F)(F)F)(C(F)(F)F)OC21c2ccccc2C(=O)c2ccccc21
inactive: [2] > 100 µM | [3] > 100 µM | [4] > 100 µM | [5] > 100 µM | [6] > 100 µM | [8] > 100 µM | [9] > 100 µM | [10] > 100 µM | [11] > 100 µM | [13] > 100 µM | [14] > 100 µM | [15] > 100 µM | [16] > 100 µM | [17] > 100 µM | [19] > 100 µM | [21] > 100 µM | [22] > 100 µM | [23] > 100 µM | [24] > 100 µM | [26] > 100 µM | [27] > 100 µM | [28] > 100 µM | [29] > 100 µM | [30] > 100 µM | [31] > 100 µM | [33] > 100 µM | [34] > 100 µM | [36] > 100 µM | [37] > 100 µM | [38] > 100 µM | [39] > 100 µM | [40] > 100 µM | [41] > 100 µM | [42] > 100 µM | [44] > 100 µM | [45] > 100 µM | [46] > 100 µM | [47] > 100 µM | [48] 34 µM | [50] > 100 µM | [51] > 100 µM | [52] > 100 µM | [53] > 100 µM | [54] > 100 µM | [55] > 100 µM | [56] > 100 µM | [57] > 100 µM | [58] > 100 µM
active: [49] < 0.01 µM
> 100 µM: [12]

Source: ChEMBL document CHEMBL1201862, “PubChem BioAssay data set” (2004)
